Source: patent US20150216871A1, “Use of a Humic Acid Preparation for Treating Warm-Blooded Animals” (WH […] WEINBÖHLA GMBH, priority 2012, published 2015)

Assays:
Bacillus badius = assay: MIC of glyphosate and neutralisation by CLK-GA, micro dilution method in RCM Bouillon; type: cell-based
Description: (§1) The pathogen Enterococcus faecalis was isolated from the microalgae Chlorella vulgaris to citrate-acid-tween-carbonate (CATC) agar. Suspicious colonies (gram positive, catalase negative cocci) were inoculated to blood agar plates (oxoid) and differentiated by using biochemical tests. The species differentiation was confirmed by means of MALDI-TOF-MS. The isolation of the pathogen Bacillus badius was done from Chlorella vulgaris to blood agar (oxoid). The species differentiation was done based on biochemical parameters. The confirmation was done by means of MALDI-TOF-MS.
(§2) Commercially available glyphosate preparation Roundup UltraMax® (450 g/l glyphosate as isopropylamine salt on SL formulation) was used for the test.
(§3) The value for the minimal inhibitory concentration of glyphosate for the indicator germs (MIC) was determined by using micro dilution method (MID) in accordance with the current specifications of the National Committee for Clinical Laboratory Standards (NCCLS). It was carried out for E. faecalis and B. Badius in RCM Bouillon (SIFIN).
(§4) The determination of the neutralising effect of humic acid product CLK-GA for glyphosate was done through glyphosate MIC. The MIC determinations for glyphosate and glyphosate-CLK-GA mixture was carried out in RCM Bouillon as described above. CLK-GA was used in the concentrations of 1.0, 0.5 and 0.25 mg/ml. The neutralisation of glyphosate was carried out in RCM Bouillon in the concentrations of 300 μg/ml, 600 μg/ml, 1200 μg/ml and 2400 μg/ml mixed with 1 mg/ml, 0.5 mg/ml and 0.25 mg/ml CLK-GA and kept overnight at 37° C. After centrifugation (3000 U/min) and filtration of the individual formulations through a centrifugal filter (3Kda, VWR, Mexico)m […] KbE E. faecalis and B. Badius was given to these. After growing it overnight at 37° C., the contents of each tube was spread on CATC agar or blood agar and was evaluated after 48 h.

Enterococcus faecalis = assay: as above; type: cell-based
Description: as §1, §2, §3, §4

[1] = 10^4 KbE/ml suspension, end concentration 300 μg/ml glyphosate and/or 1 mg/ml CLK-GA

Compound: O=C(O)CNCP(=O)(O)O [Glyphosate, glyphosate]
- growth / elimination of germs in suspension (Bacillus badius; [1]): growth was absent
- MIC (Bacillus badius; Pseudobacillus badius, read-out: MIC values Glyphosate): 150 µg/mL
- growth / elimination of germs in suspension (Enterococcus faecalis; [1]): growth was absent
- MIC (Enterococcus faecalis; Enterococcus faecalis, read-out: MIC values Glyphosate): 200 µg/mL
